Laboratory results as given in patent US12077538B2, “Diacylglycerol kinase (DGK) alpha inhibitors and uses thereof” (priority 2022, dated 2024).

Columns and labels:
Human Pan T cells = assay: IL-2 Release Detection Assay; format: cell-based; conditions: T-cell, IL-2 in supernatant by ELISA, anti-CD3 pre-coated plate, 24 hours
Protocol: Add dilutions of compounds into the cells and incubate at 37° C. &5% CO2 for 24 hours. IL-2 in cell supernatant was detected by ELISA Kit (R&D, DY202). […] Top and Bottom: Plateaus in same units as Y. Log EC50: same log units as X. Activation fold: Top activation/DMSO control. Activation % at 100 nM: Activation of non-linear regression equation curve at the concentration of 100 nM/DMSO control*100%.

[1] = Pharmacokinetic Profile Evaluation (mouse PK); format: in vivo, CD-1 mice; conditions: CD-1, plasma, oral administration at 5 mg/kg, read-out: AUC00~∞
Protocol: Species and strain: CD-1 mice of SPF. Source: Sino-British SIPPR/BK Lab Animal Ltd, Shanghai. 3 mice were intravenously administrated with given compounds (Formulation: 5% DMSO+10% Solutol+85% Saline) or orally gavage administrated with given compounds (Formulation: 5% DMSO+10% Solutol+85% Saline). The blood samples were taken via cephalic vein at timepoints 0.083 h, 0.25 h, 0.5 h, 1 h, 2 h, 4 h, 8 h and 24 h after intravenous administration or at timepoints 0.25 h, 0.5 h, 1 h, 2 h, 4 h, 6 h, 8 h and 24 h after oral gavage administration, 30 μL/time point. Blood samples were placed in tubes containing K2-EDTA and stored on ice until centrifuged. The blood samples were centrifuged at 6800 g for 6 minutes at 2-8° C. within 1 h after collected and stored frozen at approximately −80° C. An aliquot of 10 μL plasma samples were protein precipitated with 200 μL MeOH in which contains 10 ng/mL Verapamil (IS). The mixture was vortexed for 1 min and centrifuged at 18000 g for 7 min. Transfer 180 μL supernatant to 96 well plates. An aliquot of 6 μL supernatant was injected for LC-MS/MS analysis by LC-MS/MS-04 (API4000) instrument. The analytical results were confirmed using quality control samples for intra-assay variation. The accuracy of >66.7% of the quality control samples should be between 80-120% of the known value(s). Standard set of parameters including Area Under the Curve (AUC(0-t) and AUC(0-∞)), elimination half-live (T1/2), maximum plasma concentration (Cmax), will be calculated using noncompartmental analysis modules in FDA certified pharmacokinetic program Phoenix WinNonlin 7.0 (Pharsight, USA).

SMILES | EC50 (Human Pan T cells) [nM] | AUC [1] [ng·h/mL]
Cc1ccc2oc(C3CCN(c4cc(=O)n(C)c5ccc(Cl)cc45)CC3)nc2c1 [Example 2, 6-chloro-1-methyl-4-(4-(5-methylbenzo[d]oxazol-2-yl)piperidin-1-yl)quinolin-2(1H)-one] | 326 | 
Cc1ccc2oc(C3CCN(c4cc(=O)n(C)c5cc(NCCO)c(C#N)nc45)CC3)nc2c1 [Example 18, 3-((2-hydroxyethyl)amino)-5-methyl-8-(4-(5-methylbenzo[d]oxazol-2-yl)piperidin-1-yl)-6-oxo-5,6-dihydro-1,5-naphthyridine-2-carbonitrile] | 123 | 
Cc1ccc2oc(C3CCN(c4cc(=O)n(C)c5cc(O[C@H]6CCOC6)c(C#N)nc45)CC3)nc2c1 [Example 29, (S)-5-methyl-8-(4-(5-methylbenzo[d]oxazol-2-yl)piperidin-1-yl)-6-oxo-3-((tetrahydrofuran-3-yl)oxy)-5,6-dihydro-1,5-naphthyridine-2-carbonitrile] | 446 | 
Cn1c(=O)cc(N2CCC(c3nc4cc(F)ccc4o3)CC2)c2nc(C#N)ccc21 [Example 12, 8-(4-(5-fluorobenzo[d]oxazol-2-yl)piperidin-1-yl)-5-methyl-6-oxo-5,6-dihydro-1,5-naphthyridine-2-carbonitrile] | 262 | 5940
Cc1ccc2oc(C3CCN(c4cc(=O)n(C)c5ccc(C#N)nc45)CC3)nc2c1 [Example 1, 5-methyl-8-(4-(5-methylbenzo[d]oxazol-2-yl)piperidin-1-yl)-6-oxo-5,6-dihydro-1,5-naphthyridine-2-carbonitrile] | 452 | 6150
COCCOc1cc2c(nc1Cl)c(N1CCC(c3nc4cc(C)ccc4o3)CC1)cc(=O)n2C [Example 15, 6-chloro-7-(2-methoxyethoxy)-1-methyl-4-(4-(5-methylbenzo[d]oxazol-2-yl)piperidin-1-yl)-1,5-naphthyridin-2(1H)-one] | 963 | 
Cc1ccc2oc(C3CCN(c4cc(=O)n(C)c5cc(NCCO)c(Cl)nc45)CC3)nc2c1 [Example 17, 6-chloro-7-((2-hydroxyethyl)amino)-1-methyl-4-(4-(5-methylbenzo[d]oxazol-2-yl)piperidin-1-yl)-1,5-naphthyridin-2(1H)-one] | 1200 | 
Cc1ccc2oc(C3CCN(c4cc(=O)n(C)c5cc(OCCO)c(C#N)nc45)CC3)nc2c1 [Example 23, 3-(2-hydroxyethoxy)-5-methyl-8-(4-(5-methylbenzo[d]oxazol-2-yl)piperidin-1-yl)-6-oxo-5,6-dihydro-1,5-naphthyridine-2-carbonitrile] | 294 | 12100
COCCOc1cc2c(nc1C#N)c(N1CCC(c3nc4cc(C)ccc4o3)CC1)cc(=O)n2C [Example 16, 3-(2-methoxyethoxy)-5-methyl-8-(4-(5-methylbenzo[d]oxazol-2-yl)piperidin-1-yl)-6-oxo-5,6-dihydro-1,5-naphthyridine-2-carbonitrile] | 346 | 
Cc1ccc2oc(C3CCN(c4cc(=O)n(C)c5cc(O[C@@H]6CCOC6)c(C#N)nc45)CC3)nc2c1 [Example 28, (R)-5-methyl-8-(4-(5-methylbenzo[d]oxazol-2-yl)piperidin-1-yl)-6-oxo-3-((tetrahydrofuran-3-yl)oxy)-5,6-dihydro-1,5-naphthyridine-2-carbonitrile] |  | 3460
Cc1ccc2oc(C3CCN(c4cc(=O)n(C)c5ccc(C#N)cc45)CC3)nc2c1 [Example 3, 1-methyl-4-(4-(5-methylbenzo[d]oxazol-2-yl)piperidin-1-yl)-2-oxo-1,2-dihydroquinoline-6-carbonitrile] | 174 | 
Cc1ccc2oc(C3CCN(c4nc(=O)n(C)c5ccc(Cl)cc45)CC3)nc2c1 [Example 4, 6-chloro-1-methyl-4-(4-(5-methylbenzo[d]oxazol-2-yl)piperidin-1-yl)quinazolin-2(1H)-one] | 200 | 
Cc1ccc2oc(C3CCN(c4cc(=O)n(C)c5cc(OC6CCOC6)c(C#N)nc45)CC3)nc2c1 (stereo not drawn) [Example 21, 5-methyl-8-(4-(5-methylbenzo[d]oxazol-2-yl)piperidin-1-yl)-6-oxo-3-((tetrahydrofuran-3-yl)oxy)-5,6-dihydro-1,5-naphthyridine-2-carbonitrile] | 132 | 
Cc1ccc2oc(C3CCN(c4cc(=O)n(C)c5cc(OCCCO)c(C#N)nc45)CC3)nc2c1 [Example 24, 3-(3-hydroxypropoxy)-5-methyl-8-(4-(5-methylbenzo[d]oxazol-2-yl)piperidin-1-yl)-6-oxo-5,6-dihydro-1,5-naphthyridine-2-carbonitrile] | 512 | 
Cc1ccc2oc(C3CCN(c4c(C#N)c(=O)n(C)c5ccc(Cl)nc45)CC3)nc2c1 [Example 9, 6-chloro-1-methyl-4-(4-(5-methylbenzo[d]oxazol-2-yl)piperidin-1-yl)-2-oxo-1,2-dihydro-1,5-naphthyridine-3-carbonitrile] | 476 | 
Cc1ccc2oc(N3CC=C(c4cc(=O)n(C)c5cc(OCCO)c(C#N)nc45)CC3)nc2c1 [Example 30, 3-(2-hydroxyethoxy)-5-methyl-8-(1-(5-methylbenzo[d]oxazol-2-yl)-1,2,3,6-tetrahydropyridin-4-yl)-6-oxo-5,6-dihydro-1,5-naphthyridine-2-carbonitrile] | 682 | 
Cc1ccc2oc(C3CCN(c4cc(=O)n(C)c5ccc(Cl)nc45)CC3)nc2c1 [Example 10, 6-chloro-1-methyl-4-(4-(5-methylbenzo[d]oxazol-2-yl)piperidin-1-yl)-1,5-naphthyridin-2(1H)-one] | 1250 | 
Cn1c(=O)cc(N2CCC(c3nc4cc(F)ccc4o3)CC2)c2nc(Cl)ccc21 [Example 11, 6-chloro-4-(4-(5-fluorobenzo[d]oxazol-2-yl)piperidin-1-yl)-1-methyl-1,5-naphthyridin-2(1H)-one] | 832 | 
